Experimental data reported in patent US11001569B2, “6-membered heteroaromatic substituted cyanoindoline derivatives as NIK inhibitors” (Janssen Pharmaceutica NV, priority 2016, dated 2021).
Read-outs that look alike come from different tables or passages of the source.

What was measured:
[1] = tested on: KMS12-BM (NIK WT) multiple myeloma cells; experiment: Antiproliferative activity on KMS12-BM multiple myeloma cells (CellTiter-Glo); assay type: cell-based, human; conditions: 96 hr treatment, averaged values, read-out: KMS-12 Proliferation inhibition (IC50 (nM))
Method in brief: (§1)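 Cells plated at 15000 (JJN3) or 20000 (KMS12BM) per well and treated 96 h at 37° C, 5% CO2, final DMSO 0.3%, 9-point 1:3 dilutions. Viability by CellTiter-Glo luminescence; time-zero blank subtracted, growth expressed as percent of untreated control.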

[2] = target: recombinant human NF-kappaB-inducing Kinase (NIK/MAP3K14) (Homo sapiens, UniProt Q99558); experiment: Inhibition of auto-phosphorylation of recombinant human NIK/MAP3K14 activity (AlphaScreen); assay type: biochemical; conditions: 25 microM ATP, averaged over all measurements on all batches
Chain of recombinant human NF-kappaB-inducing Kinase (NIK/MAP3K14) (Q99558 whole entry): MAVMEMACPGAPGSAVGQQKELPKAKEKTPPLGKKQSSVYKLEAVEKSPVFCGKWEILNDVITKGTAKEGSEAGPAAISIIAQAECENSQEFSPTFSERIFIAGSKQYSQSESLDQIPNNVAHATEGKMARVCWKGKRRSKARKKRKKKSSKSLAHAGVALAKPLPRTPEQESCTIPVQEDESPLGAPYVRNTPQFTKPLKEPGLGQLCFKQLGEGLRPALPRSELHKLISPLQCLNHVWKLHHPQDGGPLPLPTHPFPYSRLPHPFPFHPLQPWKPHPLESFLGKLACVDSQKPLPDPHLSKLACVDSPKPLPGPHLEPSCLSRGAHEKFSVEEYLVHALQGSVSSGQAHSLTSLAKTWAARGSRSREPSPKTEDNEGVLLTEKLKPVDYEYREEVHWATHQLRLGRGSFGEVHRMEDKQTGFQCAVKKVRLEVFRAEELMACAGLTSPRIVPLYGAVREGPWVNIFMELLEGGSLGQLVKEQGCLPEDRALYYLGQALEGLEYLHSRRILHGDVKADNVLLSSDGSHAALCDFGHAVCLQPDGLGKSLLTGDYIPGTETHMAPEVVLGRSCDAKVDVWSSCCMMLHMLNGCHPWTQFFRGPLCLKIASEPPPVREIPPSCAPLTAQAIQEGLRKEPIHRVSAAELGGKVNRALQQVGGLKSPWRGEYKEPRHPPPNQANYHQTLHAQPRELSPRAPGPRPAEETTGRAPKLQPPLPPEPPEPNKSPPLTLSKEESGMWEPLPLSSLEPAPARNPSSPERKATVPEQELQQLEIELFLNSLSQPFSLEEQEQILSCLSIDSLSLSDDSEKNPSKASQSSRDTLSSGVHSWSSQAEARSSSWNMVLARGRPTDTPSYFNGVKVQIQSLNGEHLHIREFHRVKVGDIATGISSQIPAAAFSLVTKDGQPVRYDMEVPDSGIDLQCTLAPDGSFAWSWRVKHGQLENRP

[3] = tested on: P-IKKα levels in L363 (NIK translocated multiple myeloma) cells; experiment: Effect of compounds on P-IKKα levels in L363 cells (Mesoscale sandwich immuno-assay); assay type: cell-based, human; conditions: 2 hr treatment, averaged values, read-out: Inhibition of pIKKα_L-363 (IC50 (nM))
Method: Effect of Compounds on P-IKKα Levels in L363 (NIK Translocated Multiple Myeloma) Cells
All compounds tested were dissolved in DMSO and further dilutions were made in culture medium. Final DMSO concentration was 1% (v/v) in cell assays. The human L363 cells (ATCC) were cultured in RPMI 1640 medium supplemented with GlutaMax and 10% fetal calf serum (PAA). Cells were routinely maintained at densities of 0.2×10^6 cells per ml-1×10^6 cells per ml at 37° C. in a humidified 5% CO2 atmosphere. Cells were passaged twice a week splitting back to obtain the low density. Cells were seeded in 96 well plates (Nunc 167008) at 2×10^6 per ml media in a volume of 75 μl per well plus 25 μl 1 μg/ml recombinant human B-cell activating factor (BAFF/BLyS/TNFSF13B). Seeded cells were incubated at 37° C. in a humidified 5% CO2 atmosphere for 24 hr. Drugs and/or solvents were added (20 μl) to a final volume of 120 μl. Following 2 hr treatment plates were removed from the incubator and cell lysis was achieved by the addition of 30 μl 5× lysis buffer followed by shaking on a plate shaker at 4° C. for 10 min. At the end of this incubation lysed cells were centrifuged at 800×g for 20 min at 4° C. and the lysate was assessed for P-IKK levels by sandwich immuno-assay carried out in anti-rabbit antibody coated Mesoscale plates. Within an experiment, the results for each treatment were the mean of 2 replicate wells. For initial screening purposes, compounds were tested using an 8 point dilution curve (serial 1:3 dilutions). […] The blank incubation value was subtracted from all control and sample values. To determine the IC50 a sigmoidal curve was fitted to the plot of % inhibition of control P-IKKα levels versus Log10 compound concentration.

[4] = tested on: JJN-3 (NIK translocated) multiple myeloma cells; experiment: Antiproliferative activity on JJN-3 multiple myeloma cells (CellTiter-Glo); assay type: cell-based, human; conditions: JJN-3 (NIK translocated) cells, 96 hr treatment, averaged values, read-out: JJN-3 Proliferation inhibition (IC50 (nM))
Method in brief: as §1

IC50 ([1]; Homo sapiens, KMS-12-BM, 96 h) [nM] | IC50 [2] [nM] | melting point [°C] | IC50 [3] [nM] | IC50 ([4]; Homo sapiens, JJN-3, 96 h) [nM] | IC50 ([3]; Homo sapiens, L-363, 2 h) [nM] | IC50 [1] [nM] | IC50 [4] [nM] | SMILES
~5890 | 5.8 | 180 | 9.3 | 240 | – | – | – | Cc1cnc(OC2CN(C)CC2F)c(Nc2nccc(-c3cc(C#N)c4c(c3)[C@@](C)(CO)CN4)n2)c1 (some centres unmarked) [Compound 153]
4900 | 2.7 | > 260 | – | 263 | 9.9 | – | – | Cc1ncc(CO)cc1Nc1nccc(-c2cc(C#N)c3c(c2)[C@@](C)(CO)CN3)n1 [Compound 169]
> 10000 | 4.5 | 158 | – | 263 | 15.5 | – | – | COCCCc1ncc(C#N)cc1Nc1nccc(-c2cc(C#N)c3c(c2)[C@@](C)(CO)CN3)n1 [Compound 65]
> 10000 | 0.6 | 148 | – | 25 | 2.5 | – | – | Cc1cc(Nc2nccc(-c3cc(C#N)c4c(c3)[C@@](C)(CO)CN4)n2)c(=O)n(CCN2CCN(C)CC2)c1 [Compound 19i]
> 10000 | 4.5 | > 250 | – | 776 | 74.1 | – | – | C[C@]1(CO)CNc2c(C#N)cc(-c3ccnc(Nc4ccc[nH]c4=O)n3)cc21 [Compound 8i]
> 10000 | 12 | 206 | – | 1180 | 53.7 | – | – | Cc1cnc(OCC2CC2)c(Nc2nccc(-c3cc(C#N)c4c(c3)[C@@](C)(CO)CN4)n2)c1 [Compound 86]
813 | 1.1 | 198 | – | 18 | 0.9 | – | – | CN(C)CCn1cc(Cl)cc(Nc2nccc(-c3cc(C#N)c4c(c3)[C@@](C)(CO)CN4)n2)c1=O [Compound 12i]
1660 | 102 | 121 | – | 1180 | 1180 | – | – | Cc1ncc(C2CCN(C)CC2)cc1Nc1nccc(-c2cc(C#N)c3c(c2)[C@@](C)(CO)CN3)n1 [Compound 164]
– | 7.6 | 235 | – | – | 21.4 | – | – | CC1(C)CNc2c(C#N)cc(-c3ccnc(Nc4cc(F)cn(CCN5CC(F)C5)c4=O)n3)cc21 [Compound 28i]
> 10000 | 1.1 | 279 | – | 5 | 1 | – | – | Cc1cnc(C#N)cc1Nc1nccc(-c2cc(C#N)c3c(c2)[C@@](C)(CO)CN3)n1 [Compound 170]
> 10000 | 0.9 | 208 | – | 49 | 4.9 | – | – | Cc1cc(Nc2nccc(-c3cc(C#N)c4c(c3)[C@@](C)(CO)CN4)n2)c(=O)n(CC(C)N2CCOCC2)c1 (mixture of isomers) [Compound 18i]
> 10000 | 5.6 | 179 | – | 89 | 5.9 | – | – | Cc1cc(Nc2nccc(-c3cc(C#N)c4c(c3)[C@@](C)(CO)CN4)n2)c(C)nc1OCC1(C)COC1 [Compound 159]
– | 6.5 | 199 | – | – | 4 | – | – | Cc1cc(Nc2nccc(-c3cc(C#N)c4c(c3)[C@@](C)(CO)CN4)n2)c(C)nc1OC1CCOCC1 [Compound 174]
– | 8.9 | 146 | 7.8 | – | – | > 10000 | 29 | Cc1cnc(OCC2COCCN2C)c(Nc2nccc(-c3cc(C#N)c4c(c3)[C@@](C)(CO)CN4)n2)c1 (single isomer, unassigned) [Compound 149]
~234 | 1.6 | 231 | – | 144 | ~13 | – | – | Cc1nc(/C=C/C(=O)N(C)C)ccc1Nc1nccc(-c2cc(C#N)c3c(c2)[C@@](C)(CO)CN3)n1 [Compound 73]
3890 | 1.1 | 149 | – | 347 | 2.6 | – | – | Cc1cc(Nc2nccc(-c3cc(C#N)c4c(c3)[C@@](C)(CO)CN4)n2)c(=O)n(CCN2CC(F)C2)c1 [Compound 1i]

IC50 ([1]; Homo sapiens, KMS-12-BM, 96 h) [nM] | IC50 [2] [nM] | melting point [°C] | IC50 [3] [nM] | IC50 ([4]; Homo sapiens, JJN-3, 96 h) [nM] | IC50 ([3]; Homo sapiens, L-363, 2 h) [nM] | IC50 [1] [nM] | IC50 [4] [nM] | SMILES
> 10000 | 5 | 162 | – | 60 | 25.7 | – | – | CC(C)(O)COc1ncc(C#N)cc1Nc1nccc(-c2cc(C#N)c3c(c2)[C@@](C)(CO)CN3)n1 [Compound 77]
> 10000 | 1.9 | 306 | – | 31 | 0.9 | – | – | Cn1cc(Cl)cc(Nc2nccc(-c3cc(C#N)c4c(c3)[C@@](C)(CO)CN4)n2)c1=O [Compound 13i]
> 10000 | 8.9 | 166 | – | 81 | 5.4 | – | – | COc1nc(-c2cnn(C)c2)c(C)cc1Nc1nccc(-c2cc(C#N)c3c(c2)[C@@](C)(CO)CN3)n1 [Compound 91]
7080 | 2.8 | 135 | – | 5.2 | 4.1 | – | – | Cc1cnc(OC2CCN(C)CC2)c(Nc2nccc(-c3cc(C#N)c4c(c3)[C@@](C)(CO)CN4)n2)c1 [Compound 146]
> 10000 | 15.1 | 156 | – | 49 | 110 | – | – | Cc1cnc(CCNC2CC2)c(Nc2nccc(-c3cc(C#N)c4c(c3)[C@@](C)(CO)CN4)n2)c1 [Compound 182]
6610 | 1.3 | 247 | – | 145 | 4.2 | – | – | Cc1ncc(C#N)cc1Nc1nccc(-c2cc(C#N)c3c(c2)[C@@](C)(CO)CN3)n1 [Compound 50]
~9330 | 1.6 | 195 | – | 35 | 0.8 | – | – | COc1nc(CCC(=O)N(C)C)ccc1Nc1nccc(-c2cc(C#N)c3c(c2)[C@@](C)(CO)CN3)n1 [Compound 49]
6460 | 4.7 | 145 | – | 35 | 27.5 | – | – | C[C@]1(CO)CNc2c(C#N)cc(-c3ccnc(Nc4cc(C#N)cnc4CCC4CC4)n3)cc21 [Compound 64]
> 10000 | 5.5 | 115 | – | 205 | 21.4 | – | – | COCCCc1ncc(C)cc1Nc1nccc(-c2cc(C#N)c3c(c2)[C@@](C)(CO)CN3)n1 [Compound 177]
> 10000 | 16.2 | 206 | – | 141 | ~120 | – | – | C[C@]1(CO)CNc2c(C#N)cc(-c3ccnc(Nc4cc(C#N)cnc4OCC4CC4)n3)cc21 [Compound 74]
– | 339 | 143 to 145 | – | – | 617 | – | – | CC1(C)CNc2c(C#N)cc(-c3ccnc(Nc4cc(Cl)cnc4C(=O)N4CCC(O)C4)n3)cc21 (centres unmarked) [Compound 180]
– | 4.6 | 276 | – | – | 14.5 | – | – | Cc1cc(Nc2ncnc(-c3cc(C#N)c4c(c3)[C@@](C)(CO)CN4)n2)c(=O)n(C)c1 [Compound 30i]
> 10000 | 5.6 | – | – | 4680 | 11.8 | – | – | Cc1cnc(/C=C/C(=O)N(C)C)c(Nc2nccc(-c3cc(C#N)c4c(c3)[C@@](C)(CO)CN4)n2)c1 [Compound 84]
– | 14.1 | 140 | 85.1 | – | – | – | – | Cc1cnc(OCC2CN(C)CCO2)c(Nc2nccc(-c3cc(C#N)c4c(c3)[C@@](C)(CO)CN4)n2)c1 (single isomer, unassigned) [Compound 152]
> 10000 | 123 | – | – | 708 | 275 | – | – | COc1nc(N(C)C)c(Cl)cc1Nc1nccc(-c2cc(C#N)c3c(c2)C(C)(C)CN3)n1 [Compound 99]
– | 25.7 | 150 | – | – | 229 | – | – | Cc1ncc(C(=O)N2CCN(C)CC2)cc1Nc1nccc(-c2cc(C#N)c3c(c2)[C@@](C)(CO)CN3)n1 [Compound 166]
